In patent US20090192142A1, “USE OF CARBAMAZEPINE DERIVATIVES FOR THE TREATMENT OF AGITATION IN DEMENTIA PATIENTS” (priority 2004, published 2009):

System: community-dwelling elderly patients diagnosed with Alzheimer's disease (behavioral agitation)
Test: 8-week, open-label, single-arm study of oxcarbazepine for behavioral agitation in Alzheimer's disease patients
Type: in vivo, human
Conditions: for change from baseline in Cohen-Mansfield Agitation Inventory (CMAI) score (mean±SD): baseline 60.6±14.7, mean oxcarbazepine daily dose 340 mg/day (range 150-552 mg/day), p≦0.0002
Procedure: In an 8-week, open-label, single-arm study are recruited twenty-six patients community-dwelling elderly patients (>63 years of age) diagnosed with Alzheimer's disease. After a 1-week screening period to assess each patient's agitation level, oxcarbazepine 150 mg/day treatment is initiated and titrated by 150 mg/day every 3-7 days to a maximum of 1200 mg/day with a mean oxcarbazepine daily dose of 340 mg/day (range 150-552 mg/day). The primary outcome measure is improvement in behavioral agitation, based on the 38-item Cohen-Mansfield Agitation Inventory (CMAI) that evaluates the prevalence of pathologic and disruptive agitated behavior. Secondary evaluations include effects on neuropsychiatric symptoms, cognitive impairment, global functioning, and tolerability.
Significant reductions in CMAI score from baseline (mean±SD: 60.6±14.7) occur at each time point (mean±SD change from baseline on Day 14: −16.9±19.7, Day 28: −22.6±19.0, Day 56: −20.8±19.6; all p≦0.0002). […] Cognitive performance and global functioning remain stable throughout the study.

[1] = patients with Alzheimer's disease, open-label prospective study

In the case of `NC(=O)N1c2ccccc2CC(=O)c2ccccc21` [oxcarbazepine, 10-oxo-10,II-dihydro-5H-dibenz(b,f)azepine-5-carboxamide], the “change from baseline in Cohen-Mansfield Agitation Inventory (CMAI) score (mean±SD)” value (“change from baseline … (mean±SD)” for short) (Day 14) is reported as −16.9±19.7, the “change from baseline … (mean±SD)” value (Day 28) is reported as −22.6±19.0 and the “change from baseline … (mean±SD)” value (Day 56) is reported as −20.8±19.6. For the same compound, the “mean Neuropsychiatric Inventory score” value (each time point, all p≦0.02 versus screening) was “Significant improvement”, the “efficacy in the treatment of agitation” value [1] was “effective” and the tolerability [1] was “generally well tolerated”. For the same compound, the cognitive performance (throughout the 8-week study) was “remain stable” and the global functioning (throughout the 8-week study) was “remain stable”.
